Data set [1] in a line: Cytotoxicity, CellTiter-Glo Luminescent Cell Viability Assay. Conditions: human, LX-2 cells. The procedure: (§1) LX-2 cells were seeded into 96 well plates in the presence of compounds and allowed to grow for 72 hours before CellTiter-Glo® Luminescent Cell Viability Assay was carried out according the manufacturer's instruction.
Background: ATP-based viability assays read luminescence as a measure of living cells.

Data set [2] concerns primary tumor cells freshly isolated from patient derived xenograft tumor model. Kind of data set: Cholangiocarcinoma (bile duct cancer) tumor chemosensitivity assay (TCA), anti-proliferation. The note with it: for Max (%) / Min (%): inhibition rate. The format is cell-based. As to the method:
Cholangiocarcinoma (Bile Duct Cancer)
All the compounds were tested starting from 30 μM, 3-fold serial dilution.
Add 195 μL of assay medium into each well of the V-bottom plate; then transfer 5 μL of the stock compound solution of each concentration from the stock plate (400× stock). Add 5 μL of DMSO into the Blank and Control wells. Pipette up and down to mix well. This V-plate is designated as the 10× concentrate compound plate.
For cell viability test, add compounds as below. Then incubate the plates at 37° C., 5% CO2, 95% air and 100% relative humidity for 3 days or 6 days. For day 0 plate, add 15 μL of the DMSO-medium into the Control wells. The final DMSO concentration was 0.25%. Proceed to cell viability assay. For TCA plates, add 15 μL of the compound-medium from the 10× concentrate compound plate into the cells in 96-well assay plate according to the plate map. Add 15 μL of the DMSO-medium into the Blank and Control wells. The final DMSO concentration was 0.25%.
The procedures were performed according to the Promega CellTiter-Glo Luminescent Cell Viability Assay Kit (Promega-G7573): Thaw the CellTiter-Glo buffer and equilibrate to room temperature prior to use; Equilibrate the lyophilized CellTiter-Glo Substrate to room temperature prior to use; Transfer the entire liquid volume of CellTiter-Glo Buffer into the amber bottle containing CellTiter-Glo Substrate to reconstitute the lyophilized enzyme/substrate mixture. This forms the CellTiter-Glo Reagent; Mix by gently vortexing to obtain a homogeneous solution; Equilibrate the plate and its contents to room temperature for approximately 30 minutes; Add 75 μL (equal to the half volume of culture medium present in each well) CellTiter-Glo Reagent in each well. Cover plates with aluminum foil to protect from light; Mix contents for 2 minutes on an orbital shaker to induce cell lysis; Allow the plate to incubate at room temperature for 10 minutes to stabilize luminescent signal; and Transfer the mixture of cell and CTG buffer to the detection 96 well plate and record luminescence on the 2104 EnVision plate reader. An ATP standard curve at the same time points is prepared.
Inhibition rate (IR) of the tested compounds was determined by the following formula: IR (%)=(1−(RLU compound−RLU blank)/(RLU control−RLU blank))*100%. The inhibitions of different dose of compound were calculated in Excel file, and then were used to plot inhibition curve and evaluate related parameters, such as Min, Max and IC50. The data were interpreted by GraphPad Prism software. […]

Data set [3] deals with primary tumor cells freshly isolated from PC-07-0024 patient derived xenograft (PDX) tumor model. Kind of data set: Pancreatic cancer tumor chemosensitivity assay (TCA), anti-proliferation, PC-07-0024. The format is cell-based. The note with it: for IC50: Homo sapiens. As to the method:
(§2) Compound 1 is compared to Gemcitabine, which is a chemotherapy drug used in various types of cancers (e.g., breast cancer, ovarian cancer, non-small cell lung cancer, pancreatic cancer, and bladder cancer). The compounds, at 30 μM, 3 fold serial dilution, are tested in primary tumor cells freshly isolated from PC-07-0024 and LU-01-0523 patient derived xenograft (PDX) tumor model using tumor chemosensitivity assay (TCA).
(§3) The study was performed as follows. Add 195 μL of assay medium into each well of the V-bottom plate; then transfer 5 μL of the stock compound solution of each concentration from the stock plate (400× stock). Add 5 μL of DMSO into the Blank and Control wells. Pipette up and down to mix well. This V-plate is designated as the 10× concentrate compound plate.
(§4) For cell viability test, add compounds as below. Then incubate the plates at 37° C., 5% CO2, 95% air and 100% relative humidity for 3 days or 6 days. For day 0 plate, add 15 μL of the DMSO-medium into the Control wells. The final DMSO concentration was 0.25%. Proceed to cell viability assay. For TCA plates, add 15 μL of the compound-medium from the 10× concentrate compound plate into the cells in 96-well assay plate according to the plate map. Add 15 μL of the DMSO-medium into the Blank and Control wells. The final DMSO concentration was 0.25%. The assay is performed similar to the protocol of the bile duct cancer study provided above.

Data set [4] relates to primary tumor cells freshly isolated from LU-01-0523 patient derived xenograft (PDX) tumor model. Kind of data set: Tumor chemosensitivity assay (TCA), anti-proliferation, LU-01-0523. The class given is cell-based. The note with it: for IC50: Homo sapiens. The procedure: as §2, §3, §4
Data set [5] deals with Human hepatic stellate cell LX-2. The data set can be described thus: LX-2 Fibrosis Assay (inhibition of collagen production, TGF-b stimulated). The class given is cell-based. The procedure: Human hepatic stellate cell LX-2 were grown in DMEM (Invitrogen, 11960) supplied with 1% MEM Non-Essential Amino Acids (Invitrogen, 11140-050), 2% fetal bovine serum (Hyclone, SV30087.03), Penicillin (100 U/mL)-streptomycin (100 μg/mL) (Millipore, TMS-AB2-C) and 2 mM L-Glutamine (Invitrogen, 25030-001). After the cells grew in 12-well plates for 24 hours, the cell culture medium was changed to the same as above except using 0.4% fetal bovine serum. After 20 hour growth in the reduced serum medium, the cells were treated with indicated doses of compounds for 30 minutes. Subsequently, the cells were stimulated with 4 ng/mL TGF-b (R&D Systems, 240-B-002) for 48 hours. The cells were rinsed twice with DPBS before being harvested with 100 μL RIPA buffer (Sigma, R0278) supplemented with protease inhibitor cocktail (Roche, 04693132001) at 4° C. The total protein in each sample was quantified using BCA Protein Assay Kit (Pierce™, 23227) and equal amount of total protein of each sample was subject to Western blot analysis. Antibodies used were mouse anti-α-Actin (SPM332) (sc-365970), mouse anti-CTGF (E5) (sc-365970), and mouse anti-collagen α1 (3G3) (sc-293182), from Santa Cruz Biotechnologies; and mouse anti-GAPDH (6C5) (EMD Millipore, MAB374). […] As such, these compounds be used as inhibitors of fibrosis by inhibiting function of the discoidin domain receptor family.

The subject of data set [6] is LX-2 cells. Kind of data set: Cytotoxicity, CellTiter-Glo Luminescent Cell Viability Assay. The procedure: as §1
Where [7] appears, read: 72 h, read-out: Relative IC50 (μM).
The mark [8] stands for this setting: 144 h, read-out: Relative IC50 (μM).
Where [9] appears, read: 4 ng/mL TGF-b, 48 hours, read-out: Inhibition of Collagen Production in LX-2 Cells IC50.

Molecules are shown by their SMILES. Where two headings read alike, the source gives them in different places. Where only a bound is given, the exact number is not on record here.

As to `Cc1ccc2c(Nc3cccc(C(F)(F)F)c3)noc2c1C#Cc1cnc2cccnn12` [Compound 1, 7-(Imidazo[1,2-b]pyridazin-3-ylethynyl)-6-methyl-N-(3-(trifluoromethyl)phenyl)benzo[d]isoxazol-3-amine], in data set [1], the midpoint of cytotoxicity, the CC50 at 72 h, lay at 3000 nM. Further, the IC50 in data set [2] (Homo sapiens, 72 h) is more than 30000 nM; in data set [2] (Homo sapiens, 144 h), more than 30000 nM; in data set [3] (setting [7]), 5.7 µM; in data set [3] (setting [8]), 2.65 µM; in data set [4] (setting [7]), more than 30 µM; in data set [4] (setting [8]), more than 30 µM. Besides, in data set [5] (Homo sapiens, LX-2, 48 h, read-out: Inhibition of Collagen Production in LX-2 Cells IC50(nM)), the IC50 worked out at 13 nM. The “Max (%)” value turned out to be 2.56% in data set [2] (Day 3) and 2.88% in data set [2] (Day 6). Also, the “Min (%)” value in data set [2] (Day 3) was −8.75%; in data set [2] (Day 6), −27.04%. The “Bottom (%)” value is −11.36% in data set [3] (PC-07-0024, Day 3); −26.68% in data set [3] (PC-07-0024, Day 6); −5.49% in data set [4] (LU-01-0523, Day 3); −16.14% in data set [4] (LU-01-0523, Day 6). Moreover, the “Top (%)” value came to 42.29% in data set [3] (PC-07-0024, Day 3); 37.60% in data set [3] (PC-07-0024, Day 6); 100.00% in data set [4] (LU-01-0523, Day 3); 0.00% in data set [4] (LU-01-0523, Day 6).

`Cc1ccc2c(Nc3cc(CN4CCOCC4)cc(C(F)(F)F)c3)noc2c1C#Cc1cnc2cccnn12` [Compound 111] displayed a CC50 in data set [6] of more than 42300 nM. Moreover, the IC50 in data set [5] (setting [9]) was determined as 1950 nM.

The compound `Cc1ccc2c(Nc3cc(CNC4CC4)cc(C(F)(F)F)c3)noc2c1C#Cc1cnc2cccnn12` [Compound 112] yielded a CC50 in data set [6] of 1360 nM. In addition, in data set [5] (setting [9]), the IC50 came to 1660 nM.

Regarding `Cc1ccc2c(Nc3cc(CN4CCCC4)cc(C(F)(F)F)c3)noc2c1C#Cc1cnc2cccnn12` [Compound 113], the CC50 in data set [6] was 4250 nM. Moreover, the half-inhibitory concentration (IC50) in data set [5] (setting [9]) was 2580 nM.

Compound `Cc1ccc2c(Nc3cccc(C(C)(C)C#N)c3)noc2c1C#Cc1cnc2cccnn12` [Compound 115] had a CC50 in data set [6] of 1900 nM. The IC50 in data set [5] (setting [9]) was 502 nM.

In data set [6], `Cc1ccc2c(Nc3cc(CN4CCOCC4)cc(C(C)(C)C#N)c3)noc2c1C#Cc1cnc2cccnn12` [Compound 117] had a CC50 of more than 57200 nM. Moreover, the IC50 in data set [5] (setting [9]) stood at 160 nM.

In data set [6], `Cc1ccc2c(Nc3cccc(OC(F)(F)F)c3)noc2c1C#Cc1cnc2cccnn12` [Compound 120] returned a CC50 of 2410 nM. Moreover, in data set [5] (setting [9]), the IC50 is 2950 nM.

For `Cc1ccc2c(Nc3cncc(C(F)(F)F)c3)noc2c1C#Cc1cnc2cccnn12` [Compound 121], in data set [6], the CC50 is more than 40000 nM. The IC50 is more than 30000 nM in data set [2] (Day 3, read-out: IC50); 29100 nM in data set [2] (Day 6, read-out: IC50); 62 nM in data set [5] (setting [9]). The “Max (%)” value was determined as 49.93% in data set [2] (Day 3) and 51.14% in data set [2] (Day 6). Further, the “Min (%)” value in data set [2] (Day 3) is −11.42%; in data set [2] (Day 6), −18.96%.

`Cc1nc(Nc2ncc(C(=O)Nc3c(C)cccc3Cl)s2)cc(N2CCN(CCO)CC2)n1` [Dasatinib, reference compound]: the IC50 in data set [2] (Homo sapiens, 72 h, Day 3, read-out: IC50) is 22400 nM; in data set [2] (Homo sapiens, 144 h, Day 6, read-out: IC50), 15200 nM. For the same compound, the “Max (%)” value amounted to 66.18% in data set [2] (Day 3) and 89.06% in data set [2] (Day 6). In addition, the entries for the “Min (%)” value in data set [2] (Day 3) and in data set [2] (Day 6) were 8.00% and 14.03%, respectively.

In the case of `Nc1ccn([C@@H]2O[C@H](CO)[C@@H](O)C2(F)F)c(=O)n1` [Gemcitabine], the IC50 was 4 µM in data set [3] (72 h, PC-07-0024, Day 3, read-out: Relative IC50); 0.009 µM in data set [3] (144 h, PC-07-0024, Day 6, data exclsn, read-out: Relative IC50); 5.93 µM in data set [3] (144 h, PC-07-0024, Day 6, read-out: Relative IC50); more than 30 µM in data set [4] (72 h, LU-01-0523, Day 3, read-out: Relative IC50); 1.34 µM in data set [4] (144 h, LU-01-0523, Day 6, read-out: Relative IC50). Besides, the “Bottom (%)” value came out at 10.21% in data set [3] (PC-07-0024, Day 3); 23.38% in data set [3] (PC-07-0024, Day 6); 0.00% in data set [3] (PC-07-0024, Day 6, data exclsn); 4.79% in data set [4] (LU-01-0523, Day 3); 0.00% in data set [4] (LU-01-0523, Day 6). Further, the “Top (%)” value in data set [3] (PC-07-0024, Day 3) amounted to 46.53%; in data set [3] (PC-07-0024, Day 6), 72.30%; in data set [3] (PC-07-0024, Day 6, data exclsn), 30.34%; in data set [4] (LU-01-0523, Day 3), 100.00%; in data set [4] (LU-01-0523, Day 6), 100.00%.

In general, CC50 refers to the concentration that lowers cell viability or growth by half. As usually defined, the IC50 is the concentration at which inhibition is half-maximal.

The values above are taken from patent US11427591B2, “Kinase inhibitors” (priority 2018, dated 2022).
